Measured values from US5244602A, “Photochromic naphthopyrans” (PPG Industries, Inc., priority 1990, dated 1993).

Tests used:
Type in all cases: physicochemical
[1] = Coloring and bleaching behaviour; conditions: for bleaching: room temperature
[2] = Absorption maximum of naphthopyran imbibed into polymerizate; conditions: imbibed in poly[diethylene glycol bis(allyl carbonate)]; UV 365 nm lamp
From the text: (§1) The naphthopyran compounds of Examples 1-11 were imbibed into separate polymerizates of poly[diethylene glycol bis(allyl carbonate)]. On exposure to ultraviolet light from a 365 nm lamp, the imbibed polymer samples elicited a photochromic response which faded on removal of the UV light source.

[3] = Fade rate (T 1/2) of naphthopyran imbibed into polymerizate after UV activation; conditions: At Room Temperature; imbibed in poly[diethylene glycol bis(allyl carbonate)]; UV 365 nm lamp
From the text: as §1
^1. At Room Temperature

SMILES	color change on exposure to near ultraviolet [1]	bleaching [1]	Absorption λ Max [2] [NM]	Fade Rate T 1/2 [3] [min]
C1=CC(c2ccccc2)(c2ccccc2)Oc2c1ccc1ccccc21 [2,2-diphenyl-2H-naphtho[1,2-b] pyrin]	colors on exposure to near ultraviolet light at room temperature	does not bleach in a reasonable period of time	–	–
C1=CC(c2ccccc2)(c2ccccc2)Oc2ccc3ccccc3c21 [3,3-diphenyl-3H-naphtho[2,1-b]pyran]	change color on exposure to the near ultraviolet	bleaches too rapidly for use in an ophthalmic lens	–	–
CC(=O)Oc1cc2ccccc2c2c1OC(c1ccccc1)(c1ccccc1)C=C2 [Example 1, 5-acetoxy-3,3-diphenyl-3H-naphtho[2,1-b]pyran]	–	–	455	1.35
C1=CC(c2ccccc2)(c2ccccc2)Oc2c(Oc3ccccn3)cc3ccccc3c21 [Example 2, 5(2-pyridyloxy)-3,3-diphenyl-3H naphtho[2,1-b]pyran]	–	–	440	1.57
COc1ccc(C2(c3ccccc3)C=Cc3c(c(OC(C)=O)cc4ccccc34)O2)cc1 (stereo not drawn) [Example 3, 5-acetoxy-3-phenyl-3-p-methoxy phenyl-3H-naphtho[2,1-b]pyran]	–	–	483	1.05
COc1ccc(C2(c3ccccc3)C=Cc3c(c(OC(=O)c4ccccc4)cc4ccccc34)O2)cc1 (stereo not drawn) [Example 4, 5-benzoyloxy-3-phenyl-3-p-methoxy phenyl-3H-naphtho[2,1-b]pyran]	–	–	483	3.5
O=C(Oc1cc2ccccc2c2c1OC(c1ccccc1)(c1ccccc1)C=C2)c1ccccc1 [Example 5, 5-benzoyloxy-3,3-diphenyl-3H-naphtho[2,1-b]pyran]	–	–	447	2.3
CNC(=O)Oc1cc2ccccc2c2c1OC(c1ccccc1)(c1ccccc1)C=C2 [Example 6, 5-methylcarbamyloxy-3,3-diphenyl-3H-naphtho[2,1-b]pyran]	–	–	446	1.67
CC(=O)COc1cc2ccccc2c2c1OC(c1ccccc1)(c1ccccc1)C=C2 [Example 8, 5-(2-acetonyloxy)-3,3-diphenyl-3H-naphtho[2,1-b]pyran]	–	–	434	1.6
CC(=O)Oc1cc2ccccc2c2c1OC(c1ccc(C)cc1)(c1ccc(C)cc1)C=C2 [Example 9, 5-acetoxy-3,3-di(p-methylphenyl)-3H-naphtho[2,1-b]pyran]	–	–	470	2.23
O=C(CCl)Oc1cc2ccccc2c2c1OC(c1ccccc1)(c1ccccc1)C=C2 [Example 10, 5-chloroacetoxy-3,3-diphenyl-3H-naphtho[2,1-b]pyran]	–	–	458	1.6
Cc1ccc(C2(c3ccc(C)cc3)C=Cc3c(c(OC(=O)CCl)cc4ccccc34)O2)cc1 [Example 11, 5-chloroacetoxy-3,3-p-methylphenyl-3H-naphtho[2,1-b]pyran]	–	–	476	1.75
